One test relates to uveitis. In words: Uveitogenicity after immunization with the peptides. It counts as in vivo. The note with it: after immunization of objects with the peptides. An excerpt:
Of these peptides B27PD and PDSAg are uveitogenic, i.e., after immunization of objects with the peptides they develop uveitis.

For test [1], the system named is S-antigen-induced uveitis. Put plainly: S-antigen-induced uveitis after oral administration of antigens (oral tolerance). It counts as in vivo, Lewis rats. The conditions noted are these: induction with S-antigen; for clinical symptoms reduced to: oral administration, compared to group fed control protein (ovalbumin), peptides 200 μg, proteins 1 mg, three doses every other day; for uveitis reduced by (histological evaluation): oral feeding, compared to ovalbumin fed control groups. An excerpt:
(§1) Due to animal protection laws, the experiments were terminated three to four days after the last animals in the positive control groups diseased.
(§2) The histological evaluation consists of a grading of inflammatory signs in the tissue and destruction of the retina, the clinical grading refers to inflammatory signs of the conjunctiva and the anterior segment of the eye, which can be observed readily and are not necessarily correlated with the visual acuity.

The next test concerns IRBP induced uveitis. In words: IRBP-induced uveitis after oral administration of antigens (oral tolerance). The note with it: induction with IRBP, oral feeding; for clinical symptoms / clinical score for uveitis reduced to: compared to maximal disease in PBS-fed group. It counts as in vivo, Lewis rats.
Excerpt: as §1, §2

The values that follow come from patent publication US6790447B1, “Peptides for treatment of autoimmune diseases” (priority 1994, dated 2004).

In the case of “A-L-N-E-D-L-R-S-W-T-A-A-D-T (ALNEDLRSWTAADT) [B7PD, an irrelevant control peptide]”, the uveitogenic properties result in the test with uveitis is listed as “does not have any uveitogenic properties”.

Take “A-L-N-E-D-L-S-S-W-T-A-A-D-T (ALNEDLSSWTAADT) [B27PD, 14 mer peptide of the invention]”: in test [1], the “clinical symptoms reduced to” value is given as 16% and the “uveitis reduced by (histological evaluation)” value is on record as 57%. Further, the “clinical symptoms / clinical score for uveitis reduced to” value in the test with IRBP induced uveitis came out at 75%. In addition, in the test with uveitis, the uveitogenic properties entry is on record as “uveitogenic”.

Turning to “F-L-G-E-L-T-S-S-E-V-A-T-E-V (FLGELTSSEVATEV) [PDSAg]”, in test [1], the “clinical symptoms reduced to” value came out at 9% and the “uveitis reduced by (histological evaluation)” value was determined as 14%. Besides, the therapeutic properties entry with IRBP induced uveitis is “no therapeutic properties”. In the test on uveitis, the uveitogenic properties result is “uveitogenic”.

As to “IRBP: interphotoreceptor-retinoid-binding protein, retinal protein”, in the test on IRBP induced uveitis, the “clinical symptoms / clinical score for uveitis reduced to” value is listed as 25%.
